Values joined by “and” are separate entries in the source; they are usually repeats but may differ in a detail not shown here. Equal values may be shown once. Inconclusive results and toxic doses are left out. Rule as the data show it: active = T/C of 150% or more; inactive = T/C below 125%.
System: L1210 leukemia ip in BDF1 mice, survival T/C
Assay: NCI In Vivo Anticancer Drug Screen. Data for tumor model L1210 Leukemia (intraperitoneal) in B6D2F1 (BDF1) mice
Conditions: endpoint: mean survival time, higher = longer survival
Method in brief: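 Read-out is survival time, reported as the treated-group measurement over the vehicle-control measurement.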

[1] = dose: 50.0 mg/kg/injection, schedule: Q01DX009 (ip), vehicle: saline
[2] = dose: 100.0 mg/kg/injection, schedule: Q01DX009 (ip), vehicle: saline
[3] = dose: 100.0 mg/kg/injection, schedule: Q04DX003 (ip), vehicle: Klucel (hydroxypropylcellulose) (HPC)
[4] = dose: 200.0 mg/kg/injection, schedule: Q04DX003 (ip), vehicle: Klucel (hydroxypropylcellulose) (HPC)
[5] = dose: 400.0 mg/kg/injection, schedule: Q04DX003 (ip), vehicle: Klucel (hydroxypropylcellulose) (HPC)
[6] = dose: 100.0 mg/kg/injection, schedule: Q04DX003 (ip), vehicle: saline with Tween-80
[7] = dose: 200.0 mg/kg/injection, schedule: Q04DX003 (ip), vehicle: saline with Tween-80
[8] = dose: 400.0 mg/kg/injection, schedule: Q04DX003 (ip), vehicle: saline with Tween-80
[9] = dose: 50.0 mg/kg/injection, schedule: Q01DX009 (ip), vehicle: saline with Tween-80
[10] = dose: 100.0 mg/kg/injection, schedule: Q01DX009 (ip), vehicle: saline with Tween-80
[11] = dose: 200.0 mg/kg/injection, schedule: Q01DX009 (ip), vehicle: saline with Tween-80
[12] = dose: 100.0 mg/kg/injection, schedule: Q04DX002 (ip), vehicle: saline with Tween-80
[13] = dose: 200.0 mg/kg/injection, schedule: Q04DX002 (ip), vehicle: saline with Tween-80

Measured: T/C

CCOP(=O)(CCP(=O)(CCP(=O)(OCC)OCC)CCP(=O)(OCC)OCC)OCC
inactive: [1] 94 % of control | dose: 50.0 mg/kg/injection, schedule: Q04DX003 (ip), vehicle: saline 103 % of control | [2] 94 % of control | dose: 100.0 mg/kg/injection, schedule: Q04DX003 (ip), vehicle: saline 103 % of control | dose: 200.0 mg/kg/injection, schedule: Q01DX009 (ip), vehicle: saline 98 % of control | dose: 200.0 mg/kg/injection, schedule: Q04DX003 (ip), vehicle: saline 101 % of control | dose: 400.0 mg/kg/injection, schedule: Q04DX003 (ip), vehicle: saline 98 % of control

Cc1nn2c(C(=O)O)nnc2s1
inactive: dose: 100.0 mg/kg/injection, schedule: Q01DX001 (ip), vehicle: carboxymethylcellulose (CMC) 93 % of control | dose: 200.0 mg/kg/injection, schedule: Q01DX001 (ip), vehicle: carboxymethylcellulose (CMC) 98 % of control | dose: 400.0 mg/kg/injection, schedule: Q01DX001 (ip), vehicle: carboxymethylcellulose (CMC) 93 % of control

Cc1cc(C)c(C(=O)O)c(C)c1.[Hg]
inactive: dose: 3.0 mg/kg/injection, schedule: Q04DX003 (ip), vehicle: Klucel (hydroxypropylcellulose) (HPC) 96 % of control | dose: 6.0 mg/kg/injection, schedule: Q04DX003 (ip), vehicle: Klucel (hydroxypropylcellulose) (HPC) 91 % of control | dose: 12.0 mg/kg/injection, schedule: Q04DX003 (ip), vehicle: Klucel (hydroxypropylcellulose) (HPC) 86 % of control | dose: 12.5 mg/kg/injection, schedule: Q04DX003 (ip), vehicle: Klucel (hydroxypropylcellulose) (HPC) 88 % of control

O=C(Sc1ccccc1)N(c1ccccc1)c1ccccc1
inactive: dose: 100.0 mg/kg/injection, schedule: Q04DX002 (ip), vehicle: gum acacia 117 % of control | dose: 200.0 mg/kg/injection, schedule: Q04DX002 (ip), vehicle: gum acacia 101 % of control | dose: 400.0 mg/kg/injection, schedule: Q04DX002 (ip), vehicle: gum acacia 96 % of control

Cc1ccc(S(=O)(=O)NC(C)(C)CN)cc1
inactive: dose: 75.0 mg/kg/injection, schedule: Q01DX001 (ip), vehicle: other 103 % of control | dose: 150.0 mg/kg/injection, schedule: Q01DX001 (ip), vehicle: other 101 % of control | dose: 300.0 mg/kg/injection, schedule: Q01DX001 (ip), vehicle: other 95 % of control

O=CN/N=C/c1cc(Cl)cc(Cl)c1O
inactive: [3] 100 % of control | [4] 92 % of control | [5] 94 % of control

C[C@@H](c1ccccc1)[C@@H](C(=O)O)c1ccccc1
inactive: dose: 50.0 mg/kg/injection, schedule: Q01DX001 (ip), vehicle: saline 109 % of control | dose: 100.0 mg/kg/injection, schedule: Q01DX001 (ip), vehicle: saline 94 % of control | dose: 200.0 mg/kg/injection, schedule: Q01DX001 (ip), vehicle: saline 97 % of control | dose: 400.0 mg/kg/injection, schedule: Q01DX001 (ip), vehicle: saline 97 % of control

COSc1ccc([N+](=O)[O-])cc1[N+](=O)[O-]
inactive: [6] 96 % of control | [7] 100 % of control | [8] 103 % of control

O=C1Cc2ccccc2O1
inactive: [9] 101 % of control | [10] 96 % of control

OCC1=CCc2ccccc21
inactive: dose: 100.0 mg/kg/injection, schedule: Q04DX002 (ip), vehicle: other 93 % of control | dose: 200.0 mg/kg/injection, schedule: Q04DX002 (ip), vehicle: other 93 % of control | dose: 400.0 mg/kg/injection, schedule: Q04DX002 (ip), vehicle: other 93 % of control

CCOC(=O)C(C(=O)OCC)C1c2ccccc2C(=O)N(CCN(C)C)c2ccccc21 (stereo not given)
inactive: dose: 25.0 mg/kg/injection, schedule: Q01DX009 (ip), vehicle: saline 96 % of control | [1] 99 % of control | [2] 98 % of control

Nc1c(Cl)ncnc1NC1CC(CO)CC1O (stereo not given)
inactive: dose: 100.0 mg/kg/injection, schedule: Q01DX001 (ip), vehicle: Klucel (hydroxypropylcellulose) (HPC) 96 % of control | dose: 200.0 mg/kg/injection, schedule: Q01DX001 (ip), vehicle: Klucel (hydroxypropylcellulose) (HPC) 93 % of control | dose: 400.0 mg/kg/injection, schedule: Q01DX001 (ip), vehicle: Klucel (hydroxypropylcellulose) (HPC) 96 % of control

CCN(/C=C1/SC(=S)NC1=O)CC
inactive: [9] 109 % of control | [10] 98 % of control | [11] 119 % of control

C1=C2CC3(CCC2C(OCc2ccccc2)CC1)OCCO3 (stereo not given)
inactive: [9] 100 % of control | [10] 92 % of control | [11] 94 % of control

SC(S)(Cc1ccccc1)Cc1ccccc1
inactive: dose: 100.0 mg/kg/injection, schedule: Q04DX002 (ip), vehicle: saline 100 % of control | dose: 200.0 mg/kg/injection, schedule: Q04DX002 (ip), vehicle: saline 100 % of control | dose: 400.0 mg/kg/injection, schedule: Q04DX002 (ip), vehicle: saline 94 % of control

CC(C)=CCCC(C)CCOC(N)=O (stereo not given)
inactive: [12] 104 % of control | [13] 111 % of control

CC(C)(C)NC(=O)C(Br)c1ccccc1 (stereo not given)
inactive: [12] 94 % of control | [13] 105 % of control | dose: 400.0 mg/kg/injection, schedule: Q04DX002 (ip), vehicle: saline with Tween-80 94 % of control

CCOc1cc(S(N)(=O)=O)ccc1Cl
inactive: dose: 100.0 mg/kg/injection, schedule: Q01DX001 (ip), vehicle: saline with Tween-80 89 % of control | dose: 200.0 mg/kg/injection, schedule: Q01DX001 (ip), vehicle: saline with Tween-80 93 % of control | dose: 400.0 mg/kg/injection, schedule: Q01DX001 (ip), vehicle: saline with Tween-80 96 % of control

O=C1CCN(CCCN2CCC(=O)N(Cc3ccccc3)C2=S)C(=S)N1Cc1ccccc1
inactive: dose: 100.0 mg/kg/injection, schedule: Q04DX002 (ip), vehicle: DMSO 87 % of control | dose: 200.0 mg/kg/injection, schedule: Q04DX002 (ip), vehicle: DMSO 104 % of control | dose: 400.0 mg/kg/injection, schedule: Q04DX002 (ip), vehicle: DMSO 101 % of control

C=CCCCCCCCCC(=O)NN1CCOCC1
inactive: [6] 98 % of control | [7] 92 % of control | [8] 92 % of control

CCCCOC(=O)c1ccc(OC(=O)NC(C)(C)C)cc1
inactive: dose: 25.0 mg/kg/injection, schedule: Q04DX003 (ip), vehicle: gum acacia 102 % of control and 90 % of control | dose: 50.0 mg/kg/injection, schedule: Q04DX003 (ip), vehicle: gum acacia 94 % of control and 102 % of control | dose: 100.0 mg/kg/injection, schedule: Q01DX001 (ip), vehicle: gum acacia 105 % of control | dose: 100.0 mg/kg/injection, schedule: Q04DX003 (ip), vehicle: gum acacia 98 % of control and 100 % of control | dose: 200.0 mg/kg/injection, schedule: Q01DX001 (ip), vehicle: gum acacia 95 % of control | dose: 400.0 mg/kg/injection, schedule: Q01DX001 (ip), vehicle: gum acacia 103 % of control

CC1CCCC[N-]1.CC1CCCC[N-]1.[Cl][Pt+2][Cl] (stereo not given)
inactive: dose: 100.0 mg/kg/injection, schedule: Q01DX009 (ip), vehicle: Klucel (hydroxypropylcellulose) (HPC) 97 % of control | [3] 98 % of control | dose: 200.0 mg/kg/injection, schedule: Q01DX009 (ip), vehicle: Klucel (hydroxypropylcellulose) (HPC) 102 % of control | [4] 96 % of control | [5] 102 % of control

Source: PubChem BioAssay AID248 (DTP/NCI, 2004)
